{"source": "patent US20060003016A1", "about": "“Therapeutic method for endolymphatic hydrops associated diseases” (priority 2004, published 2006)", "key": {"[1]": {"test_system": "patients with Meniere's disease and endolymphatic hydrops associated diseases", "conditions": "for hearing level / hearing level, average (500-4000 Hz): case 4, right ear; for hearing level after treatment / hearing level after treatment, average (500-4000 Hz) / hearing improved as compared with before the treatment (four-frequency PTA): water intake", "description": "(§1) In the present case who could be followed up for more than 24 months after treatment with water intake, the therapeutic effect was judged by using the criteria of AAO-HNS (1995)^14), 15). Proviso that in an examination on changes of the hearing, although the criteria in the four-frequency pure-tone averages (PTA) of AAO-HNS (1995)^14) adopted mean values of the hearing levels consisting of 500 Hz, 1000 Hz, 2000 Hz and 3000 Hz, in our case, the value of 4000 Hz was used in stead of that of 3000 Hz.\nIn each figure, a horizontal axis indicates frequency (Hz) and a vertical axis indicates hearing level. […] A graph in the upper position indicates better hearing level."}, "[2]": {"test_system": "patients with Meniere's disease", "description": "as §1\nTherapeutic effect for vertigo^14), 15) was calculated according to the following equation. [formula]\nNamely, in the present case, vertiginous attack in 6 months during 18 months-24 months after the treatment was 0 time, and average numbers of rotatory vertigo per month for 6 months before the treatment were 2 times (i.e. onset in Mar. 5, 2000 and Jul. 22, 2000 within 6 months before Aug. 5, 2000). Consequently, applying the above equation: [formula] […] Clinical Case 4 Low Frequency Sensorineural Hearing Loss of the Right Ear"}}, "note": "Like-named read-outs stand apart in the source and are kept apart here.", "data": [{"smiles": "O", "note": "[water intake, water]", "values": [{"measurement": "hearing level", "setting": "[1]; 4000 Hz, Jan. 2004, water intake 1.5 lit./day", "value": 25, "unit": "dB"}, {"measurement": "hearing level", "setting": "[1]; 4000 Hz, Jul. 2003, water intake 1.5 lit./day", "value": 60, "unit": "dB"}, {"measurement": "hearing level", "setting": "[1]; 4000 Hz, Jun. 2003, water intake 1.5 lit./day from Jun. 20, 2003", "value": 25, "unit": "dB"}, {"measurement": "hearing level", "setting": "[1]; 4000 Hz, Nov. 2003, water intake 1.5 lit./day", "value": 35, "unit": "dB"}, {"measurement": "hearing level", "setting": "[1]; 4000 Hz, Oct. 2003, water intake 1.5 lit./day", "value": 30, "unit": "dB"}, {"measurement": "hearing level", "setting": "[1]; 4000 Hz, Sep. 2003, water intake 1.5 lit./day", "value": 40, "unit": "dB"}, {"measurement": "hearing level", "setting": "[1]; 8000 Hz, Aug. 2003, water intake 1.5 lit./day", "value": 75, "unit": "dB"}, {"measurement": "hearing level", "setting": "[1]; 8000 Hz, Dec. 2003, water intake 1.5 lit./day", "value": 60, "unit": "dB"}, {"measurement": "hearing level", "setting": "[1]; 8000 Hz, Jan. 2004, water intake 1.5 lit./day", "value": 65, "unit": "dB"}, {"measurement": "hearing level", "setting": "[1]; 8000 Hz, Jul. 2003, water intake 1.5 lit./day", "value": 85, "unit": "dB"}, {"measurement": "hearing level", "setting": "[1]; 8000 Hz, Jun. 2003, water intake 1.5 lit./day from Jun. 20, 2003", "value": 75, "unit": "dB"}, {"measurement": "hearing level", "setting": "[1]; 8000 Hz, Nov. 2003, water intake 1.5 lit./day", "value": 65, "unit": "dB"}, {"measurement": "hearing level", "setting": "[1]; 8000 Hz, Oct. 2003, water intake 1.5 lit./day", "value": 80, "unit": "dB"}, {"measurement": "hearing level", "setting": "[1]; 8000 Hz, Sep. 2003, water intake 1.5 lit./day", "value": 80, "unit": "dB"}, {"measurement": "hearing level, average (500-4000 Hz)", "setting": "[1]; Aug. 2003, water intake 1.5 lit./day", "value": 26.25, "unit": "dB"}, {"measurement": "hearing level, average (500-4000 Hz)", "setting": "[1]; Dec. 2003, water intake 1.5 lit./day", "value": 22.5, "unit": "dB"}, {"measurement": "hearing level, average (500-4000 Hz)", "setting": "[1]; Jan. 2004, water intake 1.5 lit./day", "value": 22.5, "unit": "dB"}, {"measurement": "hearing level, average (500-4000 Hz)", "setting": "[1]; Jul. 2003, water intake 1.5 lit./day", "value": 50.0, "unit": "dB"}, {"measurement": "hearing level, average (500-4000 Hz)", "setting": "[1]; Jun. 2003, water intake 1.5 lit./day from Jun. 20, 2003", "value": 35.0, "unit": "dB"}, {"measurement": "hearing level, average (500-4000 Hz)", "setting": "[1]; Nov. 2003, water intake 1.5 lit./day", "value": 23.75, "unit": "dB"}, {"measurement": "hearing level, average (500-4000 Hz)", "setting": "[1]; Oct. 2003, water intake 1.5 lit./day", "value": 25.0, "unit": "dB"}, {"measurement": "hearing level, average (500-4000 Hz)", "setting": "[1]; Sep. 2003, water intake 1.5 lit./day", "value": 41.25, "unit": "dB"}, {"measurement": "hearing level after treatment", "setting": "[1]; case 6, right ear, 125 Hz, Apr. 11, 2002, poorest level 18-24 months after treatment", "value": 65, "unit": "dB"}, {"measurement": "hearing level after treatment", "setting": "[1]; case 6, right ear, 250 Hz, Apr. 11, 2002, poorest level 18-24 months after treatment, before 85 dB", "value": 80, "unit": "dB"}, {"measurement": "hearing level after treatment", "setting": "[1]; case 6, right ear, 500 Hz, Apr. 11, 2002, poorest level 18-24 months after treatment, before 85 dB", "value": 80, "unit": "dB"}, {"measurement": "hearing level after treatment", "setting": "[1]; case 6, right ear, 1000 Hz, Apr. 11, 2002, poorest level 18-24 months after treatment, before 85 dB", "value": 85, "unit": "dB"}, {"measurement": "hearing level after treatment", "setting": "[1]; case 6, right ear, 2000 Hz, Apr. 11, 2002, poorest level 18-24 months after treatment, before 75 dB", "value": 75, "unit": "dB"}, {"measurement": "hearing level after treatment", "setting": "[1]; case 6, right ear, 4000 Hz, Apr. 11, 2002, poorest level 18-24 months after treatment, before 90 dB", "value": 90, "unit": "dB"}, {"measurement": "hearing level after treatment", "setting": "[1]; case 6, right ear, 8000 Hz, Apr. 11, 2002, poorest level 18-24 months after treatment, before 95 dB", "value": 90, "unit": "dB"}, {"measurement": "hearing level after treatment, average (500-4000 Hz)", "setting": "[1]; case 6, right ear, Apr. 11, 2002, poorest level 18-24 months after treatment, before 83.75 dB", "value": 82.5, "unit": "dB"}, {"measurement": "hearing improved as compared with before the treatment (four-frequency PTA)", "setting": "[1]; case 6, right ear", "value": 1.25, "unit": "dB"}, {"measurement": "category of change of hearing, AAO-HNS (1995) criteria", "setting": "[1]; case 6, water intake", "value": "unchanged"}, {"measurement": "hearing level after treatment", "setting": "[1]; case 7, left ear, 125 Hz, Oct. 10, 2003, poorest level 18-24 months after treatment, before 35 dB", "value": 5, "unit": "dB"}, {"measurement": "hearing level after treatment", "setting": "[1]; case 7, left ear, 250 Hz, Oct. 10, 2003, poorest level 18-24 months after treatment, before 40 dB", "value": 5, "unit": "dB"}, {"measurement": "hearing level after treatment", "setting": "[1]; case 7, left ear, 500 Hz, Oct. 10, 2003, poorest level 18-24 months after treatment, before 30 dB", "value": 5, "unit": "dB"}, {"measurement": "hearing level after treatment", "setting": "[1]; case 7, left ear, 1000 Hz, Oct. 10, 2003, poorest level 18-24 months after treatment, before 20 dB", "value": 5, "unit": "dB"}, {"measurement": "hearing level after treatment", "setting": "[1]; case 7, left ear, 2000 Hz, Oct. 10, 2003, poorest level 18-24 months after treatment, before 10 dB", "value": 5, "unit": "dB"}, {"measurement": "hearing level after treatment", "setting": "[1]; case 7, left ear, 4000 Hz, Oct. 10, 2003, poorest level 18-24 months after treatment, before 30 dB", "value": 20, "unit": "dB"}, {"measurement": "hearing level after treatment", "setting": "[1]; case 7, left ear, 8000 Hz, Oct. 10, 2003, poorest level 18-24 months after treatment, before 40 dB", "value": 45, "unit": "dB"}, {"measurement": "hearing level after treatment, average (500-4000 Hz)", "setting": "[1]; case 7, left ear, Oct. 10, 2003, poorest level 18-24 months after treatment, before 22.5 dB", "value": 8.75, "unit": "dB"}, {"measurement": "hearing improved as compared with before the treatment (four-frequency PTA)", "setting": "[1]; case 7, left ear", "value": 13.75, "unit": "dB"}, {"measurement": "category of change of hearing, AAO-HNS (1995) criteria", "setting": "[1]; case 7, water intake", "value": "improved"}, {"measurement": "hearing level after treatment", "setting": "[1]; case 8, right ear, 125 Hz, Sep. 19, 2003, poorest level 18-24 months after treatment, before 60 dB", "value": 40, "unit": "dB"}, {"measurement": "hearing level after treatment", "setting": "[1]; case 8, right ear, 250 Hz, Sep. 19, 2003, poorest level 18-24 months after treatment, before 70 dB", "value": 40, "unit": "dB"}, {"measurement": "hearing level after treatment", "setting": "[1]; case 8, right ear, 500 Hz, Sep. 19, 2003, poorest level 18-24 months after treatment, before 60 dB", "value": 35, "unit": "dB"}, {"measurement": "hearing level after treatment", "setting": "[1]; case 8, right ear, 1000 Hz, Sep. 19, 2003, poorest level 18-24 months after treatment, before 60 dB", "value": 40, "unit": "dB"}, {"measurement": "hearing level after treatment", "setting": "[1]; case 8, right ear, 2000 Hz, Sep. 19, 2003, poorest level 18-24 months after treatment, before 50 dB", "value": 40, "unit": "dB"}, {"measurement": "hearing level after treatment", "setting": "[1]; case 8, right ear, 4000 Hz, Sep. 19, 2003, poorest level 18-24 months after treatment, before 65 dB", "value": 60, "unit": "dB"}, {"measurement": "hearing level after treatment", "setting": "[1]; case 8, right ear, 8000 Hz, Sep. 19, 2003, poorest level 18-24 months after treatment, before 85 dB", "value": 80, "unit": "dB"}, {"measurement": "hearing level after treatment, average (500-4000 Hz)", "setting": "[1]; case 8, right ear, Sep. 19, 2003, poorest level 18-24 months after treatment, before 58.75 dB", "value": 43.75, "unit": "dB"}, {"measurement": "hearing improved as compared with before the treatment (four-frequency PTA)", "setting": "[1]; case 8, right ear", "value": 15.0, "unit": "dB"}, {"measurement": "category of change of hearing, AAO-HNS (1995) criteria", "setting": "[1]; case 8, water intake", "value": "improved"}, {"measurement": "category of therapeutic effect for vertigo, AAO-HNS criteria", "setting": "[2]; case 3, water intake", "value": "complete control"}, {"measurement": "vertiginous attack in 6 months during 18 months-24 months after the treatment", "setting": "[2]; case 3, water intake, 2 times in 6 months before", "value": 0, "unit": "time"}, {"measurement": "category of therapeutic effect for vertigo, AAO-HNS criteria", "setting": "[2]; case 6, water intake", "value": "complete control"}, {"measurement": "vertiginous attack in 6 months during 18 months-24 months after the treatment", "setting": "[2]; case 6, water intake, 4 times estimated in 6 months before", "value": 0, "unit": "time"}, {"measurement": "category of therapeutic effect for vertigo, AAO-HNS criteria", "setting": "[2]; case 7, water intake", "value": "complete control"}, {"measurement": "vertiginous attack in 6 months during 18 months-24 months after the treatment", "setting": "[2]; case 7, water intake, 0 time in 6 months before", "value": 0, "unit": "time"}, {"measurement": "category of therapeutic effect for vertigo, AAO-HNS criteria", "setting": "[2]; case 8, water intake", "value": "complete control"}, {"measurement": "vertiginous attack in 6 months during 18 months-24 months after the treatment", "setting": "[2]; case 8, water intake, 1 in 6 months before", "value": 0, "unit": "time"}]}]}
